# Values of other authors, collected in patent US20260232776A1, “COMBINATIONS OF DENDRITIC CELL-BASED VACCINES AND CHECKPOINT INHIBITORS” (Mayo Foundation for Medical Education and Research, priority 2023, published 2026).
# Test system: p44/p42 MAPK or SAPK/JNK
structure (smiles),measurement,value
"C[S+]([O-])c1ccc(-c2nc(-c3ccncc3)c(-c3ccc(F)cc3)[nH]2)cc1 (stereo not shown) [SBA203580, adezmapimod]",activity against other MAPKs such as p44/p42 MAPK or SAPK/JNK,little activity
